System: 997537-175-T-J1-PDC complex spheroid viability
Assay: Anticancer human tumor 997537-175-T-J1-PDC patient-derived colon adenocarcinoma cell line growth inhibition [GQUAD]
Conditions: for IC50: curve of first compound; for viability, T/C: stronger effect = lower value
Source text: DNA G-quadruplex Stabilizer Agents in Combinations in Complex Spheroids
A high-throughput screen of multi-cell type tumor spheroids was designed to identify active combinations of DNA G-quadruplex stabilizer agents and targeted small molecules. Complex spheroids include a stromal component modeled by human endothelial cells (HUVEC) and fibroblasts modeled by human mesenchymal stem cells (MSCs). The concentration ranges selected for each drug and investigational agent were based upon clinically achievable concentrations if the clinical Cmax of the agent was known.
Compounds. The drugs and investigational agents: pidnarulex (CX-5461; NSC782164), APTO-253 (NSC789042), BRACO-19 (NSC847499), peposertib (NSC802822), ceralasertib (NSC780249), elimusertib (NSC800525), camonsertib (NSC841442), AZD-1390 (NSC803789), olaparib (NSC753686), talazoparib (NSC767125), ART-558 (NSC835418), sotorasib (NSC818433), MRTX-1133 (NSC836407), SN-38 (NSC673596), topotecan (NSC609699), etoposide (NSC141540), doxorubicin (NSC123127), gemcitabine (NSC613327), 5-fluorouracil (NSC19893), paclitaxel (NSC125973), vemurafenib (NSC761431), panobinostat (NSC761190), R-306465 (JNJ-16241199; NSC773264), adavosertib (NSC754352), TP-3654 (NSC805149), carboplatin (NSC241240), KSQ-4279 (NSC840948), and staurosporine (NSC755774) were obtained from the National Cancer Institute (NCI) Developmental Therapeutics Program Chemical Repository (34). The FDA-approved anticancer drug set is available from the NCI Developmental Therapeutics Program. […] The stock solutions were prepared in dimethyl sulfoxide (DMSO, Sigma-Aldrich, St. Louis, MO, cat. D2650) at 800-fold the tested concentration and stored at -70 degrees C prior to their use. All drugs and investigational agents were tested over a range starting from a high concentration at or near the clinical Cmax and decreasing in half-log increments. If the clinical Cmax for an agent had not been determined, the highest concentration tested was 10 microM.
2.3 Cell Culture. All cells were maintained in an incubator at 37 degrees C and 5% CO2 with 95% humidity. The PDC lines were cultured according to standard operating procedures established by the NCI PDMR. All PDCs were thawed and cultured in Matrigel-coated flasks prepared with a working solution of 1X Ham's F-12 nutrient mix, without supplementation (Invitrogen, cat. 11765054), 100 U/mL penicillin-streptomycin (Invitrogen, cat. 15140122), and 2.5% Matrigel (Corning Inc., cat. 354248) for the first three passages. The 857933-349-R-J2-PDC line was cultured in 6C/Colon 1B media, which includes advanced DMEM/F-12 (Thermo Fisher Scientific, cat. 12634028), 10 mM HEPES (Thermo Fisher Scientific, cat. 15630080), 1X GlutaMAX supplement (Thermo Fisher Scientific, cat. 35050061), 0.1 mg/mL primocin (InvivoGen, cat. ant-pm-2), 10% defined fetal bovine serum, heat inactivated (HyClone Laboratories Inc., cat. SH30070.03HI), 50% L-WRN conditioned media (ATCC, cat. CRL-3276), 1.25 mM N-Acetyl-L-cysteine (Sigma-Aldrich, cat. A9165), 10 mM nicotinamide (Sigma-Aldrich, cat. N0636), 1X B-27 supplement (Thermo Fisher Scientific, cat. 17504044), 1X N-2 supplement (Thermo Fisher Scientific, cat. 17502048), 10 microM Y-27632 dihydrochloride (Tocris Bioscience, cat. 1254), and 50 ng/mL human EGF recombinant protein (Thermo Fisher Scientific, cat. PHG0311). The 485176-168-R4-J1-PDC line was cultured in Panc media, which includes all 6C/Colon 1B media components plus 100 ng/mL human FGF-10 (Thermo Fisher Scientific, cat. 100-26), 500 nM SB-431542 (Selleckchem, cat. S1067), and gastrin (Tocris, cat. 3006).
[…]

[1] = second compound 0.0316 µM, first compound 0.0316 µM
[2] = second compound 0.0316 µM, first compound 0.316 µM
[3] = second compound 0.1 µM, first compound 0.0316 µM
[4] = second compound 0.1 µM, first compound 0.316 µM
[5] = second compound 0.316 µM, first compound 0.0316 µM
[6] = second compound 0.316 µM, first compound 0.316 µM
[7] = second compound 1 µM, first compound 0.0316 µM
[8] = second compound 1 µM, first compound 0.316 µM
[9] = second compound 3.16 µM, first compound 0.0316 µM
[10] = second compound 3.16 µM, first compound 0.316 µM
[11] = second compound 10 µM, first compound 0.0316 µM
[12] = second compound 10 µM, first compound 0.316 µM
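Also: spheroids exposed to the agents for 7 days.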
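For viability, T/C in this document: 100% = DMSO vehicle control viability.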

With `CC[C@@]1(O)C(=O)OCc2c1cc1n(c2=O)Cc2cc3c(CN(C)C)c(O)ccc3nc2-1` + Cc1cnc(CNC(=O)c2c(=O)c3ccc(N4CCCN(C)CC4)nc3n3c2sc2ccccc23)cn1 the IC50 (second compound 0.0316 µM) was > 0.316 µM, the IC50 (second compound 0.1 µM) was > 0.316 µM and the IC50 (second compound 0.316 µM) was > 0.316 µM. For the same compound, the IC50 (second compound 1 µM) was > 0.316 µM, the IC50 (second compound 3.16 µM) was > 0.316 µM and the IC50 (second compound 10 µM) was > 0.316 µM. For the same compound, the viability, T/C (second compound 0.0316 µM, first compound 0.000999 µM) was 108%, the viability, T/C (second compound 0.0316 µM, first compound 0.00316 µM) was 104% and the viability, T/C (second compound 0.0316 µM, first compound 0.00999 µM) was 97.8%. The viability, T/C [1] was 82%, the viability, T/C (second compound 0.0316 µM, first compound 0.0999 µM) was 72.3% and the viability, T/C [2] was 80.4%. It also gave a viability, T/C (second compound 0.1 µM, first compound 0.000999 µM) of 97.8%, a viability, T/C (second compound 0.1 µM, first compound 0.00316 µM) of 97.5% and a viability, T/C (second compound 0.1 µM, first compound 0.00999 µM) of 92.7%. For the same compound, the viability, T/C [3] was 90.1%, the viability, T/C (second compound 0.1 µM, first compound 0.0999 µM) was 97.5% and the viability, T/C [4] was 58%. It also gave a viability, T/C (second compound 0.316 µM, first compound 0.000999 µM) of 92.8%, a viability, T/C (second compound 0.316 µM, first compound 0.00316 µM) of 88.8% and a viability, T/C (second compound 0.316 µM, first compound 0.00999 µM) of 105%. The viability, T/C [5] was 85%, the viability, T/C (second compound 0.316 µM, first compound 0.0999 µM) was 98.8% and the viability, T/C [6] was 66.3%. The viability, T/C (second compound 1 µM, first compound 0.000999 µM) was 89.8%, the viability, T/C (second compound 1 µM, first compound 0.00316 µM) was 93.5% and the viability, T/C (second compound 1 µM, first compound 0.00999 µM) was 101%. For the same compound, the viability, T/C [7] was 93.5%, the viability, T/C (second compound 1 µM, first compound 0.0999 µM) was 108% and the viability, T/C [8] was 59%. For the same compound, the viability, T/C (second compound 3.16 µM, first compound 0.000999 µM) was 75%, the viability, T/C (second compound 3.16 µM, first compound 0.00316 µM) was 104% and the viability, T/C (second compound 3.16 µM, first compound 0.00999 µM) was 118%. It also gave a viability, T/C [9] of 89.7%, a viability, T/C (second compound 3.16 µM, first compound 0.0999 µM) of 96.1% and a viability, T/C [10] of 58.8%. The viability, T/C (second compound 10 µM, first compound 0.000999 µM) was 97.7%, the viability, T/C (second compound 10 µM, first compound 0.00316 µM) was 108% and the viability, T/C (second compound 10 µM, first compound 0.00999 µM) was 130%. The viability, T/C [11] was 69%, the viability, T/C (second compound 10 µM, first compound 0.0999 µM) was 94.5% and the viability, T/C [12] was 70.2%.
For `O=C(c1cc(Cc2n[nH]c(=O)c3ccccc23)ccc1F)N1CCN(C(=O)C2CC2)CC1` + Cc1cnc(CNC(=O)c2c(=O)c3ccc(N4CCCN(C)CC4)nc3n3c2sc2ccccc23)cn1, the IC50 (second compound 0.0316 µM) was > 10 µM, the IC50 (second compound 0.1 µM) was > 10 µM and the IC50 (second compound 0.316 µM) was > 10 µM. The IC50 (second compound 1 µM) was > 10 µM, the IC50 (second compound 3.16 µM) was > 10 µM and the IC50 (second compound 10 µM) was > 10 µM. For the same compound, the viability, T/C [1] was 95.5%, the viability, T/C (second compound 0.0316 µM, first compound 0.1 µM) was 87.9% and the viability, T/C [2] was 88.9%. It also gave a viability, T/C (second compound 0.0316 µM, first compound 1 µM) of 85.1%, a viability, T/C (second compound 0.0316 µM, first compound 3.16 µM) of 82.4% and a viability, T/C (second compound 0.0316 µM, first compound 10 µM) of 102%. The viability, T/C [3] was 92.3%, the viability, T/C (second compound 0.1 µM, first compound 0.1 µM) was 92.5% and the viability, T/C [4] was 82.1%. It also gave a viability, T/C (second compound 0.1 µM, first compound 1 µM) of 72.5%, a viability, T/C (second compound 0.1 µM, first compound 3.16 µM) of 85.8% and a viability, T/C (second compound 0.1 µM, first compound 10 µM) of 68.9%. For the same compound, the viability, T/C [5] was 82%, the viability, T/C (second compound 0.316 µM, first compound 0.1 µM) was 96% and the viability, T/C [6] was 90.1%. The viability, T/C (second compound 0.316 µM, first compound 1 µM) was 99.8%, the viability, T/C (second compound 0.316 µM, first compound 3.16 µM) was 95.5% and the viability, T/C (second compound 0.316 µM, first compound 10 µM) was 93.8%. For the same compound, the viability, T/C [7] was 85.6%, the viability, T/C (second compound 1 µM, first compound 0.1 µM) was 106% and the viability, T/C [8] was 105%. It also gave a viability, T/C (second compound 1 µM, first compound 1 µM) of 89.5%, a viability, T/C (second compound 1 µM, first compound 3.16 µM) of 97% and a viability, T/C (second compound 1 µM, first compound 10 µM) of 108%. It also gave a viability, T/C [9] of 117%, a viability, T/C (second compound 3.16 µM, first compound 0.1 µM) of 108% and a viability, T/C [10] of 95.3%. It also gave a viability, T/C (second compound 3.16 µM, first compound 1 µM) of 84.4%, a viability, T/C (second compound 3.16 µM, first compound 3.16 µM) of 99% and a viability, T/C (second compound 3.16 µM, first compound 10 µM) of 89.5%. For the same compound, the viability, T/C [11] was 103%, the viability, T/C (second compound 10 µM, first compound 0.1 µM) was 95.2% and the viability, T/C [12] was 106%. It also gave a viability, T/C (second compound 10 µM, first compound 1 µM) of 116%, a viability, T/C (second compound 10 µM, first compound 3.16 µM) of 95.9% and a viability, T/C (second compound 10 µM, first compound 10 µM) of 101%.

— PubChem BioAssay AID2060487 (Molecular Pharmacology Branch, DTP, NCI, 2025)
